Format in all cases: in vivo
Assay [1] concerns common chickweed (Stellaria media). Put plainly: Test E pre-/postemergence plant response. The note with it: scale 0 to 100. In a few lines: (§1)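 Pre- and postemergence greenhouse test; compounds formulated in non-phytotoxic solvent with surfactant, postemergence plants 2–18 cm (1- to 4-leaf stage). Visual rating against untreated controls after 14 to 21 days, on a 0 (no effect) to 100 (complete control) scale.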

Assay [2] relates to Virginia (V.) dayflower (Commelina virginica). Put plainly: Test E pre-/postemergence plant response. The note with it: scale 0 to 100. In a few lines: as §1
Assay [3] has as its system Russian thistle (Salsola kali). Put plainly: Test E pre-/postemergence plant response. The following applies: Preemergence, scale 0 to 100. An outline of the steps:
as §1

Assay [4] concerns common sowthistle (Sonchus oleraceous). Description: Test E pre-/postemergence plant response. The following applies: scale 0 to 100. In a few lines:
as §1

Assay [5] relates to prickly sida (Sida spinosa). Put plainly: Test E pre-/postemergence plant response. The note with it: scale 0 to 100. An outline of the steps: as §1
The subject of the next assay is kochia (Kochia scoparia). Put plainly: Test E pre-/postemergence plant response. The following applies: Preemergence, scale 0 to 100. An outline of the steps:
as §1

Assay [6] concerns rice flatsedge (Cyperus iria). Description: Test D flooded paddy plant response. The note with it: Flood, scale 0 to 100 (0 no effect, 100 complete control), 21 days. From the text:
(§2) Three plastic pots (ca. 16-cm diameter) for each application rate were partially filled with sterilized Tama silt loam soil comprising a 35:50:15 ratio of sand, silt and clay and 2.6% organic matter. Separate plantings for each of the three pots were as follows. Seeds from the U.S. of ducksalad (Heteranthera limosa), umbrella sedge (Cyperus difformis) and purple redstem (Ammannia coccinea), were planted into one 16-cm pot for each rate. Seeds from the U.S. of rice flatsedge (Cyperus iria), bearded (Brdd.) sprangletop (Leptochloa fascicularis), one stand of 9 or 10 water-seeded rice seedlings (Oryza sativa cv. ‘Japonica—M202’), and one stand of 6 transplanted rice seedlings (Oryza sativa cv. ‘Japonica—M202’) were planted into one 16-cm pot for each rate. Seeds from the U.S. of barnyardgrass (Echinochloa crus-galli), late watergrass (Echinochloa oryzicola), early watergrass (Echinochloa oryzoides) and junglerice (Echinochloa colona) were planted into one 16-cm pot for each rate. Plantings were sequential so that crop and weed species were at the 2.0 to 2.5-leaf stage at time of treatment.
(§3) Potted plants were grown in a greenhouse with day/night temperature settings of 30/27° C., and supplemental balanced lighting was provided to maintain a 16-hour photoperiod. Test pots were maintained in the greenhouse until test completion.
(§4) At time of treatment, test pots were flooded to 3 cm above the soil surface, treated by application of test compounds directly to the paddy water, and then maintained at that water depth for the duration of the test. Effects of treatments on rice and weeds were visually evaluated by comparison to untreated controls after 21 days. Plant response ratings, summarized in Table D, are based on a scale of 0 to 100 where 0 is no effect and 100 is complete control. A dash (-) response means no test result.

For assay [7], the system named is barnyardgrass (Echinochloa crus-galli). Description: Test D flooded paddy plant response. The following applies: Flood, scale 0 to 100 (0 no effect, 100 complete control), 21 days.
From the text: as §2, §3, §4

Assay [8] has as its system water-seeded rice seedlings (Oryza sativa cv. ‘Japonica—M202’). Description: Test D flooded paddy plant response. The following applies: Flood, scale 0 to 100 (0 no effect, 100 complete control), 21 days.
From the text: as §2, §3, §4

The test system of assay [9] is blackgrass (Alopecurus myosuroides). Put plainly: Test A pre-/postemergence plant response. In a few lines:
(§5)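 Both pre- and postemergence treatment given concurrently; postemergence seedlings measured 2–10 cm at the one- to two-leaf stage. Visual injury, 0–100 scale versus untreated, at ~10 days.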

Assay [10] concerns canarygrass (Phalaris minor). Description: Test A pre-/postemergence plant response. An outline of the steps:
as §5

The mark [11] stands for this setting: Postemergence, 31 g ai/ha, 0 to 100 scale, 0 no effect, 100 complete control.
The mark [12] stands for this setting: Postemergence, 125 g ai/ha, 0 to 100 scale, 0 no effect, 100 complete control.
The mark [13] stands for this setting: Preemergence, 31 g ai/ha, 0 to 100 scale, 0 is no effect, 100 is complete control.
Setting [14] is: Preemergence, 125 g ai/ha, 0 to 100 scale (0 no effect, 100 complete control).

For `Cc1cc(-c2ccc(Cl)cc2)nn1-c1c(OS(=O)(=O)c2ccccc2)cnn(C)c1=O` [Compound 35], the “Plant response rating, Chickweed” value in assay [1] (Postemergence, 8 g ai/ha) came to 0; in assay [1] (Postemergence, 16 g ai/ha) it was 0; in assay [1] (Postemergence, 31 g ai/ha), 0.

In the case of `CCOC(=O)Oc1cnn(C)c(=O)c1-n1nc(-c2ccc(Cl)cc2)cc1C` [Compound 53], the “Plant response rating, Dayflower, V.” value in assay [2] (16 g ai/ha, Preemergence) turned out to be 0; in assay [2] (31 g ai/ha, Preemergence), 0; in assay [2] (62 g ai/ha, Preemergence) it was 0; in [2] (Postemergence, 8 g ai/ha) it was 0; in assay [2] (Postemergence, 16 g ai/ha) it was 0; in assay [2] (Postemergence, 31 g ai/ha), 0. The “Plant response rating, Dayflower, V.” value in assay [2] (Postemergence, 62 g ai/ha) was determined as 0. In addition, the “Plant response rating, Thistle, Russian” value in assay [3] (16 g ai/ha), in [3] (31 g ai/ha) and in assay [3] (62 g ai/ha) was 0 in each case. Moreover, the “Plant response rating, Sowthistle” value came out at 0 in [4] (16 g ai/ha, Preemergence); 0 in assay [4] (31 g ai/ha, Preemergence); 0 in [4] (62 g ai/ha, Preemergence); 0 in [4] (Postemergence, 8 g ai/ha); 0 in assay [4] (Postemergence, 16 g ai/ha); 0 in assay [4] (Postemergence, 31 g ai/ha). Further, in [4] (Postemergence, 62 g ai/ha), the “Plant response rating, Sowthistle” value is listed as 0. Besides, the “Plant response rating, Prickly Sida” value is 0 in assay [5] (16 g ai/ha, Preemergence); 0 in assay [5] (31 g ai/ha, Preemergence); 0 in assay [5] (62 g ai/ha, Preemergence); 0 in [5] (Postemergence, 8 g ai/ha); 0 in [5] (Postemergence, 16 g ai/ha); 0 in assay [5] (Postemergence, 31 g ai/ha). For the same compound, the “Plant response rating, Prickly Sida” value in [5] (Postemergence, 62 g ai/ha) was 0. In addition, the “Plant response rating, Kochia” value with kochia (Kochia scoparia) (16 g ai/ha) and in the assay on kochia (Kochia scoparia) (31 g ai/ha) was 0 throughout. The “Plant response rating, Chickweed” value in assay [1] (62 g ai/ha, Preemergence) came out at 0.

Consider `CCc1cc(-c2ccc(Cl)cc2)nn1-c1c(O)cnn(C)c1=O` [Compound 21], for which, in [1] (Postemergence, 31 g ai/ha), the “Plant response rating, Chickweed” value is given as 0. Further, the “Plant response rating, Flatsedge, Rice” value in assay [6] (16 g ai/ha) turned out to be 0; in assay [6] (32 g ai/ha), 0; in assay [6] (64 g ai/ha), 70; in assay [6] (125 g ai/ha), 70; in assay [6] (250 g ai/ha) it was 70. Besides, the “Plant response rating, Barnyardgrass” value in [7] (16 g ai/ha) came to 0; in [7] (32 g ai/ha), 60; in [7] (64 g ai/ha), 100; in [7] (125 g ai/ha) it was 100; in assay [7] (250 g ai/ha), 100. The “Plant response rating, Rice, Water Seeded” value in assay [8] (16 g ai/ha) is given as 0; in assay [8] (32 g ai/ha), 20; in assay [8] (64 g ai/ha), 35; in [8] (125 g ai/ha), 65; in [8] (250 g ai/ha), 75.

As to `Cc1cc(-c2ccc(Cl)cc2)nn1-c1c(OC(=O)c2cccc(Cl)c2)cnn(C)c1=O` [Compound 32], the “Plant response rating, Dayflower, V.” value in assay [2] (Postemergence, 8 g ai/ha) amounted to 0; in assay [2] (Postemergence, 16 g ai/ha) it was 0; in [2] (Postemergence, 31 g ai/ha) it was 0; in assay [2] (Postemergence, 62 g ai/ha) it was 0. The “Plant response rating, Sowthistle” value is listed as 0 in assay [4] (Postemergence, 8 g ai/ha); 0 in assay [4] (Postemergence, 16 g ai/ha); 0 in [4] (Postemergence, 31 g ai/ha); 0 in assay [4] (Postemergence, 62 g ai/ha). For the same compound, the “Plant response rating, Prickly Sida” value in assay [5] (Postemergence, 8 g ai/ha) was 0; in [5] (Postemergence, 16 g ai/ha), 0; in assay [5] (Postemergence, 31 g ai/ha) it was 0; in [5] (Postemergence, 62 g ai/ha), 0.

As for `Cc1cc(-c2ccc(Cl)cc2)nn1-c1c(OC(=O)Oc2ccccc2)cnn(C)c1=O` [Compound 54], the “Plant response rating, Dayflower, V.” value is reported as 0 in assay [2] (8 g ai/ha, Postemergence); 0 in assay [2] (Postemergence, 16 g ai/ha); 0 in [2] (Postemergence, 31 g ai/ha); 0 in assay [2] (Postemergence, 62 g ai/ha). For the same compound, the “Plant response rating, Sowthistle” value in [4] (8 g ai/ha, Postemergence) turned out to be 0; in assay [4] (Postemergence, 16 g ai/ha), 0; in assay [4] (Postemergence, 31 g ai/ha) it was 0; in assay [4] (Postemergence, 62 g ai/ha) it was 0. Besides, the “Plant response rating, Prickly Sida” value in assay [5] (8 g ai/ha, Postemergence) is recorded as 0; in assay [5] (Postemergence, 16 g ai/ha) it was 0; in [5] (Postemergence, 31 g ai/ha), 0; in assay [5] (Postemergence, 62 g ai/ha), 0.

Regarding `CCc1cc(-c2ccc(Br)cc2)nn1-c1c(O)cnn(CC(F)(F)F)c1=O` [Compound 73], the “Plant response rating, Blackgrass” value in assay [9] (setting [11]) was found to be 90; in assay [9] (setting [12]), 90; in assay [9] (setting [13]) it was 60; in assay [9] (setting [14]) it was 90. For the same compound, the entries for the “Plant response rating, Canarygrass” value in assay [10] (setting [11]), in [10] (setting [12]) and in [10] (setting [13]) were 20, 100 and 30, respectively.

Take `CCc1c(C)c(-c2ccc(Br)cc2)nn1-c1c(O)cnn(C)c1=O` [Compound 83]: the “Plant response rating, Blackgrass” value in [9] (setting [11]) is 90; in assay [9] (setting [12]), 100; in [9] (setting [13]), 20; in [9] (setting [14]), 100. In addition, the “Plant response rating, Canarygrass” value is listed as 70 in [10] (setting [11]), 100 in [10] (setting [12]) and 90 in [10] (setting [14]).

`Cc1nn(C)c(=O)c(-c2nc(-c3ccc(Cl)cc3)sc2C)c1O` [Compound 79, 4-[2-(4-chlorophenyl)-5-methyl-4-thiazolyl]-5-hydroxy-2,6-dimethyl-3(2H)-pyridazinone]: the “Plant response rating, Blackgrass” value in assay [9] (setting [11]) is 60; in [9] (setting [12]), 100; in assay [9] (setting [13]), 80; in assay [9] (setting [14]), 100. Further, the “Plant response rating, Canarygrass” value in [10] (setting [11]) was found to be 40; in assay [10] (setting [12]) it was 90; in [10] (setting [13]) it was 0; in [10] (setting [14]), 100.
